The values below come from PubChem BioAssay (NCI).

Assay in all cases: NCI-60 cell line screen, 48 h
The subject of experiment [1] is EKVX NSCLC.
The subject of experiment [2] is SF-268 CNS.
Experiment [3] concerns NCI-H23 lung.
Experiment [4] relates to OVCAR-8 ovarian.
For experiment [5], the system named is DMS 114 small cell lung.
Experiment [6] has as its system DMS 273 small cell lung.
The subject of experiment [7] is M19-MEL melanoma.
The test system of experiment [8] is MALME-3M melanoma.
Experiment [9] deals with SNB-78 CNS.
Experiment [10] has as its system IGROV1 ovarian.
Experiment [11] concerns LOX IMVI melanoma.
In experiment [12] the test system is HOP-18 NSCLC.

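Method: 48-hour compound exposure of cells in 96-well plates, five concentrations, linear interpolation of endpoints. The concentration for full growth arrest is given as TGI.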

`Cn1cnc([N+](=O)[O-])c1Sc1nccn1-c1ccccc1`: the TGI in experiment [1] is above 100 µM; in experiment [2], above 100 µM; in [3], 79.6 µM; in experiment [4], above 100 µM; in [5], 91.2 µM; in [6], above 100 µM. The TGI was above 100 µM in [7]; 62.8 µM in experiment [8]; above 100 µM in experiment [9]; above 100 µM in experiment [10]; 46.9 µM in experiment [11]; 54.3 µM in [12].
For the compound `OCC(O)COc1ccc(F)cc1` (configuration not stated), the TGI in [1], in [2], in experiment [3], in [4], in experiment [5] and in experiment [6] was above 100 µM each time. For the same compound, the TGI in [7], in experiment [8], in experiment [9], in [10], in experiment [11] and in experiment [12] was above 100 µM each time.
Turning to `COc1cc(/C=C(\C)c2ccc3c(c2)OCO3)cc(OC)c1OC`, the TGI was 51.8 µM in experiment [1]; above 100 µM in experiment [2]; above 100 µM in experiment [3]; above 100 µM in experiment [4]; 87 µM in experiment [5]; 96.3 µM in experiment [6]. The TGI was above 100 µM in [7]; 62.1 µM in experiment [8]; above 100 µM in [9]; above 100 µM in experiment [10]; above 100 µM in experiment [11]; above 100 µM in experiment [12].
On to `Cc1cc2c(=O)cc(-c3ccc(O)cc3)oc2c(C(=O)O)c1C`, for which the TGI in experiment [1], in experiment [3], in experiment [4], in [5], in experiment [6] and in experiment [7] was above 100 µM throughout. Moreover, the TGI in experiment [8], in experiment [9], in experiment [10], in [11] and in experiment [12] was above 100 µM in each case.
With `Cc1ccc(S(=O)OC2c3ccccc3Cc3ccccc32)cc1` (configuration not stated), the TGI in experiment [1] turned out to be 34.5 µM; in [2], 47.1 µM; in experiment [3], 33.8 µM; in experiment [4], 28.9 µM; in experiment [5] it was 34.8 µM; in [6], 33 µM. Further, the TGI came to 40.8 µM in [7]; 26.7 µM in experiment [8]; 46.1 µM in experiment [9]; 45.6 µM in experiment [10]; 28.8 µM in [11]; 59.4 µM in experiment [12].
On to `CC1=CC=C2C(C)(C)CC[C@@H]3OC(=O)[C@H]1[C@]23C`, for which the TGI in experiment [1], in experiment [2], in experiment [3], in [4], in experiment [5] and in experiment [6] was above 100 µM throughout. Moreover, the TGI in experiment [7], in experiment [8], in experiment [9], in [10], in experiment [11] and in experiment [12] was above 100 µM in each case.
With `COC(=O)c1oc([N+](=O)[O-])c(-c2ccccc2)c1-c1ccccc1`, the TGI in experiment [1], in experiment [2], in experiment [3], in experiment [4], in [5] and in experiment [6] was above 100 µM each time. Further, the TGI in experiment [7], in experiment [8], in experiment [9], in experiment [10], in experiment [11] and in [12] was above 100 µM throughout.
With `O=C(O)COc1ccc2c3c1C(=O)CCC3CO2` (configuration not stated), the TGI in [1], in experiment [2], in experiment [3], in experiment [4], in experiment [5] and in experiment [6] was above 100 µM each time. The TGI in [7], in [8], in [9], in experiment [10], in experiment [11] and in experiment [12] was above 100 µM in each case.
As to `N#CCC(=O)N/N=C(/C(=O)Nc1ccccc1)C1C(=O)N(c2ccccc2)N=C1N` (configuration not stated), the TGI in [1], in [2], in experiment [3], in experiment [4], in experiment [5] and in [6] was above 100 µM each time. The TGI in [7], in [8], in experiment [9], in [10], in [11] and in [12] was above 100 µM in each case.
